From patent publication US20250136578A1 (Kolm Therapeutics Inc., priority 2023, published 2025)

What was measured:
VCaP cells = experiment: VCaP growth inhibition assay (CTG); assay type: cell-based; conditions: Homo sapiens, 216 h, 30 pM R1881, 9 days
Procedure: VCaP cells (ATCC Cat #CRL-2876) are plated at 1×10^4 cells per well of a white plastic 96-well cluster plate (Thermo Scientific Nunc Cat #165306) in 100 uL phenol red-free DMEM (Gibco Cat #21063-029) media with 5% CSS (Omega Scientific Cat #FB-04). Cluster plates are returned to the incubator (37*C/5% CO2) for 72 hours prior to treatment. Just prior to treatment, 100 uL of phenol red-free DMEM/5% CSS and 60 pM R1881 (Sigma Cat #R0908-10 mg) was added to each well of the cluster plates (Final R1881 concentration=30 pM). Compounds (200X) were added to each well in a volume of 1 uL, with serial dilutions (1:5) from 20 uM to 2 pM (final concentrations in well are 100 nM to 10 fM). Cluster plates are returned to the incubator for 9 days.
After the 9-day treatment period, media was removed from the cluster plates by inversion and 100 uL room temperature CTG reagent (Promega Cat #G7573) is added to each well. The cluster plates are placed on a shaker and incubated at room temperature for 20 minutes. Following this shaking/incubation, cluster plates are read on a luminometer (BMG ClarioStar). IC50 values are obtained by graphing the RLU data vs. compound concentration with nonlinear regression 4-parameter logistic curves (GraphPad Prism).

AR / CBP ternary complex = AR / CBP ternary complex (Homo sapiens, UniProt P10275+Q92793); experiment: Ternary complex formation assay (sandwich ELISA, AR capture, CBP antibody detection) in VCaP cell lysates; assay type: cell-based; conditions: treated 1.5 hours, rabbit CBP or p300 antibody detection, average, read-out: Average Ternary Complex
Procedure: Black MaxiSorp plates: coat with 50 μL of mouse 1/50 diluted AR antibody (Monoclonal Antibody (AR 441 from Thermo Fisher); diluted in phosphate buffered saline (PBS). Spin the liquid to the bottom of the wells, if necessary. Incubate overnight at 4° C. Next day, wash 3 times with 200 μL of TBST. Block with 200 μL of blocking buffer (5% BSA in TBST) at room temperature for 2 hours (BSA: A4503 or A2153 from Sigma). Wash plates 3 times with TBST. Plates are ready for lysates Preparation of dimerizer treated lysates
Culture cells in 96 wells at 50K VCaP cells/well for at least 3 days. Plate in 5% Omega charcoal stripped FBS in total volume of 200 uL. Treat with bifunctional for 1.5 hours by adding 1 μL of 200× stock in DMSO. Aspirate media/compound. Add and pipet-to-mix 70 μL of 1× AlphaLisa Lysis Buffer to each well (Perkin Elmer, AlphaLISA SureFire Ultra, diluted in water). Pipet up and down when adding lysis buffer to disrupt cells. Let lysis proceed for 30 min at 4° C.
Incubate for 1 hour at room temperature. Flick out the lysates. Wash 3 times with TBST. Add 75 μL of rabbit CBP or p300 antibody to each well (diluted 1:5000 in blocking buffer (5% BSA in TBST). CBP antibody: (D6C5) Rabbit mAb #7389; p300 antibody: (D8Z4E) Rabbit mAb #86377. Incubate overnight at 4° C. Wash 3 times with 300 uL TBST, each time on shaker for 5-10 min. Prepare goat anti-rabbit antibody conjugated to HRP (1/100K dilution in blocking buffer) Invitrogen Catalog number: 32260. Add 75 μL of HRP-conjugated goat anti-rabbit antibody. Incubate at room temperature for 1 hour. Flick out the HRP-antibody mixture. Wash 7-8 times with TBST, each time on shaker for 10 min. Later washes try to overflow the wells so that no residual HRP remains bound to the sides of the well. Prepare and add 75 uL/well of QuantaRed Enhance Chemifluorescent HRP Substrate solution. Immediately read fluorescence on BMG ClarioStar (ex: 570/em 585), and repeat the read in 5 minutes and 15 minutes.

AR / CBP ternary complex, sequence (P10275 whole entry): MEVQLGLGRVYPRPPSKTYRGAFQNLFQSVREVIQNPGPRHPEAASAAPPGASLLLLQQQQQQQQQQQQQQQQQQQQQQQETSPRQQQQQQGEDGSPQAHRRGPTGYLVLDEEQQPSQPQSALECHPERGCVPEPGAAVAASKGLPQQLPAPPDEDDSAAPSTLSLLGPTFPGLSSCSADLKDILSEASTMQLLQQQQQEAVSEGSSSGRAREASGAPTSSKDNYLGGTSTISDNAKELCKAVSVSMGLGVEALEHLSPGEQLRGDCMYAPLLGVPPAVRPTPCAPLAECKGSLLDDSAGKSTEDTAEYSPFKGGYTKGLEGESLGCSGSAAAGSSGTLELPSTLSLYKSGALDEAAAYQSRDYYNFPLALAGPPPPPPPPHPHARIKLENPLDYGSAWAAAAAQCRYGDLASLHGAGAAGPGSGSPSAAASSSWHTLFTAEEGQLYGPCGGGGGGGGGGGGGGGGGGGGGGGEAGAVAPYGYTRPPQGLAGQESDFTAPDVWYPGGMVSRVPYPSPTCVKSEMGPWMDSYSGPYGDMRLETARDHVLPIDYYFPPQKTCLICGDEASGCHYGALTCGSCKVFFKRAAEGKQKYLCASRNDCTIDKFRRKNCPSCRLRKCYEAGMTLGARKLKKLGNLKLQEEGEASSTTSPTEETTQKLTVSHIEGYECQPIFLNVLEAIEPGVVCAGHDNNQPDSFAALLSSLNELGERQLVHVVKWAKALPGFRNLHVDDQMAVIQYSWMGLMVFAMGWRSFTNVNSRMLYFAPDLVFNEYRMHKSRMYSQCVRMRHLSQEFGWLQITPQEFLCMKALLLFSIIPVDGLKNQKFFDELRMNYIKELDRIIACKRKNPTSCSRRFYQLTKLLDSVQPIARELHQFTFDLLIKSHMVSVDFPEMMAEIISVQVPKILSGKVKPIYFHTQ
AR / CBP ternary complex, sequence (Q92793 2-2442): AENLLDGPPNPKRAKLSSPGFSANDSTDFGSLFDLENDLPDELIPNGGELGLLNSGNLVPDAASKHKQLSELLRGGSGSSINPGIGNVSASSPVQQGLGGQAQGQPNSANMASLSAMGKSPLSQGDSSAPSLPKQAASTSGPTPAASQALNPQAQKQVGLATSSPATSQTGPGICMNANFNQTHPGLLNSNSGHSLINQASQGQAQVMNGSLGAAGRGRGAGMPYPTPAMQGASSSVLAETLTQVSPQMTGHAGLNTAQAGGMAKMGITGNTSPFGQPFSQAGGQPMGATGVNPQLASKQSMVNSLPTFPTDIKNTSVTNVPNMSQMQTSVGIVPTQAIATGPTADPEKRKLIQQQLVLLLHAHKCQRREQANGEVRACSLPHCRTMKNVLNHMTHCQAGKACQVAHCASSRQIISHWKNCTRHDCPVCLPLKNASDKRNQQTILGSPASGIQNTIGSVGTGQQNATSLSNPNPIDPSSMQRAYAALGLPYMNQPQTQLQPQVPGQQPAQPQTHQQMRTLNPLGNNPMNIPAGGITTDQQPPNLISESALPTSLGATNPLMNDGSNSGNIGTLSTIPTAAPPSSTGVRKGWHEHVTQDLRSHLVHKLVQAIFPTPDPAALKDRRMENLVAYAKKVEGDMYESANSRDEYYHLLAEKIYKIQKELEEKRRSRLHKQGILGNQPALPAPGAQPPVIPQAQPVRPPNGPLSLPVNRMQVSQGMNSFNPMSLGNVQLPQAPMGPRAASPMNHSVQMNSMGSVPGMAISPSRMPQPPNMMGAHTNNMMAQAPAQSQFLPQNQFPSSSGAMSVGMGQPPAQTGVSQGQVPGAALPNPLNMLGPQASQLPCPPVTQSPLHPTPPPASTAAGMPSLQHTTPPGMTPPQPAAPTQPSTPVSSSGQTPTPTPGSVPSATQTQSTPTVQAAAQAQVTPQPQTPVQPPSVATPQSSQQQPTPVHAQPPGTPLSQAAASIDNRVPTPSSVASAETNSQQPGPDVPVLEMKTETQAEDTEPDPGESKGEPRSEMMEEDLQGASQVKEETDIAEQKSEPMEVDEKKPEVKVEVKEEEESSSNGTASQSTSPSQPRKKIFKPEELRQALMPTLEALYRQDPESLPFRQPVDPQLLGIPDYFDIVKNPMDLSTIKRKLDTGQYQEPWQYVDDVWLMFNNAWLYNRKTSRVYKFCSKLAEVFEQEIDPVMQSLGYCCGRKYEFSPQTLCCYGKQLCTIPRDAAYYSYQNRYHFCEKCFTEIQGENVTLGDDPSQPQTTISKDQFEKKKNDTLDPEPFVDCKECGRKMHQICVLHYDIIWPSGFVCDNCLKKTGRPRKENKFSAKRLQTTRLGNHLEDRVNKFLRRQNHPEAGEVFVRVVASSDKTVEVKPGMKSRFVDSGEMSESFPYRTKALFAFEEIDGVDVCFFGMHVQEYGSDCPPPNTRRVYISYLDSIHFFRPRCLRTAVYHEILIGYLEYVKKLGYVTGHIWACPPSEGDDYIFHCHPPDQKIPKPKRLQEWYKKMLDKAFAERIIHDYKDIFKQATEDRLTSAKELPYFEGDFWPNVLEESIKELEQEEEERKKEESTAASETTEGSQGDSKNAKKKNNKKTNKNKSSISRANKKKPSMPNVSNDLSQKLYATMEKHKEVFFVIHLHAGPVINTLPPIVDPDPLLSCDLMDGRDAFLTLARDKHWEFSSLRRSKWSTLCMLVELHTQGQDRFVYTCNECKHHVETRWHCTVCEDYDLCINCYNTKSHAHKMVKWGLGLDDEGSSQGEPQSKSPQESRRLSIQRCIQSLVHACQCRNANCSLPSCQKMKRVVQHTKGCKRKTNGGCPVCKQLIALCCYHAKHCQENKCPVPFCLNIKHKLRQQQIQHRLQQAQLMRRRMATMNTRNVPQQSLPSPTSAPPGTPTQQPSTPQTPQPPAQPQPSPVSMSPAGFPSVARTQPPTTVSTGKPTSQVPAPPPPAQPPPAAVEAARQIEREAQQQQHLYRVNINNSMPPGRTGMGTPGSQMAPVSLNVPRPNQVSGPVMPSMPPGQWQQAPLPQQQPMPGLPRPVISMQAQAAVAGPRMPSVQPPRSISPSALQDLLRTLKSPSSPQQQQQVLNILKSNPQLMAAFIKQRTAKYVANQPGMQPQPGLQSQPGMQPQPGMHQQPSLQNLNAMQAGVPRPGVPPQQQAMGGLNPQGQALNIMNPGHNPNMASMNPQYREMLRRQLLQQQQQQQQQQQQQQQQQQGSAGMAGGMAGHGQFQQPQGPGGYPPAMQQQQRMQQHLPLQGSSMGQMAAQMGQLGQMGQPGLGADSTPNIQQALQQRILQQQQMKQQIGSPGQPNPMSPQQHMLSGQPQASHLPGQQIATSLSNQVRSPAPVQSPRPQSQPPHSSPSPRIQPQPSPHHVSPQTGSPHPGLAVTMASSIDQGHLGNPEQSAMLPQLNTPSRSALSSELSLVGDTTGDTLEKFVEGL

SMILES | IC50 (VCaP cells) | EC50 (AR / CBP ternary complex)
Cn1cc(-c2cc3c(cc2C(F)F)N(c2cc(C4=CCN(CC5CCN(c6ccc(C(=O)N[C@H]7CC[C@H](Oc8ccc(C#N)c(Cl)c8)CC7)nn6)CC5)CC4)c4c(c2)n(C)c(=O)n4C)CCC3)cn1 [Compound 148] | 0.1 to 1 nM | < 1 nM
CC(=O)N1CCc2c(c(N3CCCc4cc(-c5ccc(CCC6CCN(c7ccc(C(=O)N[C@H]8CC[C@H](Oc9ccc(C#N)c(Cl)c9)CC8)cn7)CC6)cc5)c(C(F)F)cc43)nn2C2CCOCC2)C1 [Compound 168, 6-[4-[2-[4-[1-(5-acetyl-1-tetrahydropyran-4-yl-6,7-dihydro-4H-pyrazolo[4,3-c]pyridin-3-yl)-7-(difluoromethyl)-3,4-dihydro-2H-quinolin-6-yl]phenyl]ethyl]-1-piperidyl]-N-[4-(3-chloro-4-cyano-phenoxy)cyclohexyl]pyridine-3-carboxamide] | ≤ 0.1 nM | 10 to 100 nM
CC(=O)N1CCc2c(c(Nc3ccc(-c4cnn(C)c4)cc3F)nn2C2CCN(CCC3CCN(c4ncc(C(=O)N[C@H]5CC[C@H](Oc6ccc(C#N)c(Cl)c6)CC5)cn4)CC3)CC2)C1 [Compound 10, 2-[4-[2-[4-[5-acetyl-3-[2-fluoro-4-(1-methylpyrazol-4-yl)anilino]-6,7-dihydro-4H-pyrazolo[4,3-c]pyridin-1-yl]-1-piperidyl]ethyl]-1-piperidyl]-N-[4-(3-chloro-4-cyano-phenoxy)cyclohexyl]pyrimidine-5-carboxamide] | 0.1 to 1 nM | –
CC(=O)N1CCc2c(c(-c3cccc4cc(-c5cnn(CC6CCN(c7ccc(C(=O)N[C@H]8CC[C@H](Oc9ccc(C#N)c(Cl)c9)CC8)nn7)CC6)c5)ncc34)nn2C)C1 [Compound 7, 6-[4-[[4-[8-(5-acetyl-1-methyl-6,7-dihydro-4H-pyrazolo[4,3-c]pyridin-3-yl)-3-isoquinolyl]pyrazol-1-yl]methyl]-1-piperidyl]-N-[4-(3-chloro-4-cyano-phenoxy)cyclohexyl]pyridazine-3-carboxamide] | ≤ 0.1 nM | –
CC(=O)N1CCc2c(c(-c3cccc4cc(-c5ccc(N6CCC7(CC6)CCN(c6ccc(C(=O)N[C@H]8CC[C@H](Oc9ccc(C#N)c(Cl)c9)CC8)nn6)CC7)nc5)ncc34)nn2C2CCOCC2)C1 [Compound 179, 6-[9-[5-[8-(5-acetyl-1-tetrahydropyran-4-yl-6,7-dihydro-4H-pyrazolo[4,3-c]pyridin-3-yl)-3-isoquinolyl]-2-pyridyl]-3,9-diazaspiro[5.5]undecan-3-yl]-N-[4-(3-chloro-4-cyano-phenoxy)cyclohexyl]pyridazine-3-carboxamide] | 0.1 to 1 nM | –

The next lines start with the values.

IC50 (VCaP cells) | EC50 (AR / CBP ternary complex) | SMILES
≤ 0.1 nM | < 1 nM | CO[C@@H]1CN(c2ccc(C(=O)N[C@H]3CC[C@H](Oc4ccc(C#N)c(Cl)c4)CC3)nn2)CC[C@@H]1CN1CCC(n2nc(N3CCCc4cc(-c5cnn(C)c5)c(C(F)F)cc43)c3c2CCN(C(C)=O)C3)CC1 [Compound 219, 6-[4-[[4-[5-acetyl-3-[7-(difluoromethyl)-6-(1-methylpyrazol-4-yl)-3,4-dihydro-2H-quinolin-1-yl]-6,7-dihydro-4H-pyrazolo[4,3-c]pyridin-1-yl]-1-piperidyl]methyl]-3-methoxy-1-piperidyl]-N-[4-(3-chloro-4-cyano-phenoxy)cyclohexyl] pyridazine-3-carboxamide]
0.1 to 1 nM | – | CC(=O)N1CCc2c(c(N3CCCc4cc(-c5ccc(OC6CC7(CCN(c8ccc(C(=O)N[C@H]9CC[C@H](Oc%10ccc(C#N)c(Cl)c%10)CC9)nn8)CC7)C6)nc5)c(C(F)F)cc43)nn2C2CCOCC2)C1 [Compound 202, 6-[2-[[5-[1-(5-acetyl-1-tetrahydropyran-4-yl-6,7-dihydro-4H-pyrazolo[4,3-c]pyridin-3-yl)-7-(difluoromethyl)-3,4-dihydro-2H-quinolin-6-yl]-2-pyridyl]oxy]-7-azaspiro[3.5]nonan-7-yl]-N-[4-(3-chloro-4-cyano-phenoxy)cyclohexyl]pyridazine-3-carboxamide]
≤ 0.1 nM | – | CC(=O)N1CCc2c(c(N3CCCc4cc(-c5cnn(C)c5)c(C(F)F)cc43)nn2C2CCN(C3CCC4(CC3)CN(c3ccc(C(=O)N[C@H]5CC[C@H](Oc6ccc(C#N)c(Cl)c6)CC5)nn3)C4)CC2)C1 [Compound 185, 6-[7-[4-[5-acetyl-3-[7-(difluoromethyl)-6-(1-methylpyrazol-4-yl)-3,4-dihydro-2H-quinolin-1-yl]-6,7-dihydro-4H-pyrazolo[4,3-c]pyridin-1-yl]-1-piperidyl]-2-azaspiro[3.5]nonan-2-yl]-N-[4-(3-chloro-4-cyano-phenoxy)cyclohexyl]pyridazine-3-carboxamide]
≤ 0.1 nM | – | COC1(CN2CCC(n3nc(N4CCCc5cc(-c6cnn(C)c6)c(C(F)F)cc54)c4c3CCN(C(C)=O)C4)CC2)CCN(c2ccc(C(=O)N[C@H]3CC[C@H](Oc4ccc(C#N)c(Cl)c4)CC3)nn2)CC1 [Compound 177, 6-[4-[[4-[5-acetyl-3-[7-(difluoromethyl)-6-(1-methylpyrazol-4-yl)-3,4-dihydro-2H-quinolin-1-yl]-6,7-dihydro-4H-pyrazolo [4,3-c]pyridin-1-yl]-1-piperidyl]methyl]-4-methoxy-1-piperidyl]-N-[4-(3-chloro-4-cyano-phenoxy)cyclohexyl]pyridazine-3-carboxamide]
≤ 0.1 nM | – | CC(=O)N1CCc2c(c(N3CCCc4cc(-c5cnn(C)c5)c(C(F)F)cc43)nn2[C@H]2CC[C@H](N(C)C3CCN(c4ccc(C(=O)N[C@H]5CC[C@H](Oc6ccc(C#N)c(Cl)c6)CC5)nn4)CC3)CC2)C1 [Compound 187, 6-[4-[[4-[5-acetyl-3-[7-(difluoromethyl)-6-(1-methylpyrazol-4-yl)-3,4-dihydro-2H-quinolin-1-yl]-6,7-dihydro-4H-pyrazolo[4,3-c]pyridin-1-yl]cyclohexyl]-methyl-amino]-1-piperidyl]-N-[4-(3-chloro-4-cyano-phenoxy)cyclohexyl]pyridazine-3-carboxamide]
≤ 0.1 nM | – | CC(=O)N1CCc2c(c(N3CCCc4cc(-c5cnn(C)c5)c(C(F)F)cc43)nn2[C@H]2CC[C@@H](N(C)C3CCN(c4ccc(C(=O)N[C@H]5CC[C@H](Oc6ccc(C#N)c(Cl)c6)CC5)nn4)CC3)CC2)C1 [Compound 189, 6-[4-[[4-[5-acetyl-3-[7-(difluoromethyl)-6-(1-methylpyrazol-4-yl)-3,4-dihydro-2H-quinolin-1-yl]-6,7-dihydro-4H-pyrazolo[4,3-c]pyridin-1-yl]cyclohexyl]-methyl-amino]-1-piperidyl]-N-[4-(3-chloro-4-cyano-phenoxy)cyclohexyl]pyridazine-3-carboxamide]
– | 1 to 10 nM | CC(=O)N1CCc2c(c(N3CCCc4cc(-c5cscn5)c(C(F)F)cc43)nn2C2CCN([C@H]3CCCN(c4ccc(C(=O)N[C@H]5CC[C@H](Oc6ccc(C#N)c(Cl)c6)CC5)nn4)C3)CC2)C1 [Compound 260, 6-[(3S)-3-[4-[5-acetyl-3-[7-(difluoromethyl)-6-thiazol-4-yl-3,4-dihydro-2H-quinolin-1-yl]-6,7-dihydro-4H-pyrazolo[4,3-c]pyridin-1-yl]-1-piperidyl]-1-piperidyl]-N-[4-(3-chloro-4-cyano-phenoxy)cyclohexyl]pyridazine-3-carboxamide]
– | > 100 nM | CC(=O)N1CCc2c(c(N3CCCc4cc(-c5cnn(C)c5)c(C)cc43)nn2C2CCN(C3CCC4(CC3)CN(c3ccc(C(=O)N[C@H]5CC[C@H](Oc6ccc(C#N)c(C(F)(F)F)c6)CC5)nn3)C4)CC2)C1 [Compound 297]
